Experimental findings from paper PMC11087398, “Evaluation of 1,10-phenanthroline-based hydroxamate derivative as dual histone deacetylases/ribonucleotide reductase inhibitor with antitumor activities” (DARU Journal of Pharmaceutical Sciences, 2024) are described below.

Series [1] is described as follows: Partition coefficient 1-octanol/water. In kind it is physicochemical. As to conditions: 1-octanol/water (MOPS buffer), pH 7.4; read-out: log (Kpart7.4), partition coefficient. As to the method: The partition coefficient (Kpart) of PA was determined in a 1-octanol/water system. 1-octanol was added to MOPS buffer containing PA (IC50), and OD at 276 nm was measured before and after each addition. Kpart values were calculated..

For series [2], the system named is RR (3H-thymidine incorporation into DNA of SiHa cells). Description: Inhibition of DNA synthesis (3H-thymidine incorporation) as RR activity. In kind it is cell-based. As to conditions: Homo sapiens, 48 h treatment. The method, then:
SiHa cells (5 × 10^6) were treated with varying test compound concentrations for 48 h. Following incubation, cells were pulsed with 5 nM ^3H-thymidine for 30 min at 37 °C. After collection, washing, and total DNA extraction, radioactivity was quantified as counts per min (CPM) using a Tri-carb 2900TR liquid scintillation (Perkin Elmer, USA).
(Dividing cells build labelled thymidine or BrdU into new DNA.)

Series [3] deals with foreskin fibroblast cells. Description: MTT cell viability assay. It counts as cell-based. The note with it: 48 h, normal human fibroblast cells, mean ± SD, read-out: Antiproliferative activity IC50, Fibroblast. The method, then:
(§1) Human cancer cells (SiHa, HepG2, MCF7, Cal27) were obtained from ATCC, while foreskin fibroblast cells were generated at the Manipal School of Life Sciences. Cells were cultured in DMEM with 10% FBS, maintained in an Eppendorf CellXpert® C170 incubator at 37 °C with 5% CO2, and medium was renewed every 48–72 h.
(§2) Cancer cells (1 × 10^5 cells/mL) and fibroblast cells (5 × 10^4 cells/mL) were seeded in 96-well plates. Test compounds, dissolved in DMSO and diluted in DMEM with 10% FBS, were treated for 48 h. MTT (5 mg/mL) was added, and after 4 h, absorbance was measured at 570 and 630 nm using a VARIOSKAN™ 3001 multimode multiplate reader.
On the technique in general: Tetrazolium assays rely on reduction of a dye to a coloured formazan, in cell work by metabolically active cells.

Series [4] concerns SiHa cells. Briefly: Suppression of cytotoxicity by iron supplementation (FAC co-administration, MTT). It counts as cell-based, human. The note with it: PA at IC50 with FAC 25, 50, 100 µM, MTT after 48 h.
Experimental: To confirm the intracellular Fe^3+ chelation ability of PA, three different concentrations (25, 50, 100 µM) of ferric ammonium citrate (FAC) with PA (IC50) were co-administered in SiHa cells, and the cell viability was assessed using MTT after 48 h.
The test system of series [5] is SiHa cells. Briefly: In vitro cell migration (scratch) assay. In kind it is cell-based, human. As to conditions: IC50 concentration, 48 h post-wounding, control group 19.64%. The method, then: SiHa cells were cultured in 6-well plates using DMEM with 10% FBS until they formed a monolayer. A scratch was done on the cell monolayer by using a sterile 200 μL pipette tip. Subsequently, the cells were treated with the PA at IC50 concentration, and the extent of cell migration was assessed by analyzing the wound area at 0th, 24th, and 48th h time intervals using ImageJ software (Wayne Rasband, USA).

Series [6] deals with intracellular dNTP levels in SiHa cells. Description: dNTP pool analysis (HPLC). It counts as cell-based, human. The note with it: IC50 concentration. As to the method: Harvested duplicate samples (1 million cells each) were washed with ice-cold PBS, and an extraction solution (6.5: 3.5 of acetonitrile and water mixture with 100 mM formic acid) was added. After incubation and centrifugation, the solution was lyophilized, reconstituted in 100 µL HPLC buffer A, and analyzed on a Waters Symmetry C18 column using HPLC. A stepwise gradient of Buffer A and B was employed, with detection at 260 and 280 nm, as mentioned by Crona et al., in 2016 [34]. Quantification was based on peak area measurements in the chromatogram, providing relative quantification of the analyzed components.

For series [7], the system named is Acetyl-Histone H3 in SiHa cells. Description: Western blot of acetylated histone H3. It counts as cell-based, human. As to conditions: PA 10 and 20 µM, 48 h. The method, then: SiHa cells (2 × 10^5 cells/well) were cultured in 6-well plates, treated with varied concentrations of test compounds for 48 h, and lysed in RIPA buffer. After centrifugation, protein content was quantified using Bradford assay. Protein extracts were subjected to SDS-PAGE and were transferred to the nitrocellulose membrane. Following blocking, membranes were probed with CST antibodies (Acetyl-Histone H3, B-Actin) at 1:3000 dilution and secondary anti-rabbit antibodies (1:5000 dilution). iBright™ CL1500 Imaging System captured the images.

Series [8] concerns HDAC (SiHa cell nuclear extracts). Briefly: In vitro fluorescent HDAC assay. The note with it: substrate Boc-Lys(Ac)-AMC, read-out: HDAC inhibitory activity IC50. In kind it is biochemical, human. The method, then:
In a black 96-well plate, HDAC assay buffer, varied concentrations of test compounds, and SiHa cell nucleus extract were combined and incubated for 30 min. The enzymatic reaction commenced with the addition of the fluorescent substrate, Boc-Lys(Ac)-AMC, and lasted for 2 h at 37 °C. Reaction termination involved adding a developer, followed by an additional incubation at room temperature for 10–15 min. Fluorescence intensity was assessed using a VARIOSKAN™ 3001 multimode multiplate reader at an excitation wavelength of 354 nm and emission wavelength of 450 nm.

The subject of a further series is Cal27. Description: MTT cell viability assay. It counts as cell-based, human. As to conditions: mean ± SD, read-out: Antiproliferative activity IC50, Cal27. As to the method:
as §1, §2

Another series has as its system SiHa. Briefly: MTT cell viability assay. The note with it: 48 h, mean ± SD, read-out: Antiproliferative activity IC50, SiHa. In kind it is cell-based, human. As to the method:
as §1, §2

Another series concerns MCF7. Description: MTT cell viability assay. As to conditions: mean ± SD, read-out: Antiproliferative activity IC50, MCF7. It counts as cell-based, human. The method, then:
as §1, §2

The subject of a further series is HepG2. Briefly: MTT cell viability assay. In kind it is cell-based, human. As to conditions: mean ± SD, read-out: Antiproliferative activity IC50, HepG2. As to the method:
as §1, §2

In series [9] the test system is SiHa cells. Description: Cell cycle analysis (propidium iodide flow cytometry). It counts as cell-based, human. The note with it: IC50 concentration, 48 h. The text has this:
After trypsinization, cells were fixed in 70% ethanol, treated with RNase-A, stained with propidium iodide, and analyzed using the Partec CyFlow Space with FloMax software (Germany).
(In flow cytometry, cells or beads pass a laser one at a time.)

Series [10] deals with SiHa cells. Briefly: Apoptosis assay (Annexin V/propidium iodide flow cytometry). In kind it is cell-based, human. As to conditions: 48 h. The method, then: SiHa cells were cultured at a density of 1 × 10^6 cells/mL in 10 cm plates. Upon reaching 80% confluency, cells were subjected to 48 h treatment with test compounds (IC50 and IC70). Following two PBS washes, trypsinization, and suspension in Annexin V binding buffer, cells were incubated, stained with propidium iodide, and analyzed for apoptosis using Apoptosis Detection Kit I and Partec CyFlow Space with FloMax software (Germany).

Series [11] concerns SiHa cells. Description: Anchorage-dependent colony formation assay. In kind it is cell-based, human. As to conditions: IC50 concentration of each compound. The method, then:
SiHa cells (500 cells/well) were seeded in 6 cm plates. After 24 h, cells were treated with the IC50 concentration of test compounds and incubated for 21 days with media changes every three days. On day 21, colonies were stained with 0.4% crystal violet for 10 min, washed twice with PBS, and then counted.

Like-named read-outs stand apart in the source and are kept apart here.

The IC50 is the point on the concentration scale where inhibition reaches its midpoint. `O=C(CCCCCCC(=O)Nc1cc2cccnc2c2ncccc12)NO` [PA, N^1-hydroxy-N^8-(1,10-phenanthrolin-5-yl)octanediamide]: in series [1], the logD was 0.82. Further, the IC50 in series [2] is 9.34 µM; in series [3], greater than 100 µM; in [8], 10.8 µM; in the series on Cal27 (Homo sapiens, CAL-27, 48 h) it was 51 ± 3.08 µM; in the series with SiHa (Homo sapiens, SiHa), 16.4 ± 4.71 µM; with MCF7 (Homo sapiens, MCF7, 48 h), greater than 100 µM. In the series on HepG2 (Homo sapiens, HepG2, 48 h), the 50% inhibitory concentration (IC50) was greater than 100 µM. The “effect of ferric ammonium citrate (FAC) co-administration on cytotoxicity” value in the series with SiHa cells [4] is “FAC reduced PA cell toxicity in a concentration-dependent manner”. Also, the wound area percentage in the series on SiHa cells [5] came to 56.33%. The “intracellular dNTP levels” value in series [6] is listed as “marked decrease in intracellular dNTP levels”. Further, in [7], the “acetylated Histone H3 levels (western blot)” value was “dose-dependent increase in acetylated Histone H3 levels”. For the same compound, in the series with SiHa cells [9], the cell cycle progression entry is “increased the cell population at the S phase and a concentration-dependent elevation in the G2/M phase”. Moreover, the figures for the early apoptosis in the series with SiHa cells [10] (IC50 concentration) and in the series with SiHa cells [10] (IC70 concentration) were 3.63% and 2.58%, respectively. The “clonogenic efficiency (colony formation)” value in the series on SiHa cells [11] is given as 1.99%.
As to `c1cnc2c(c1)ccc1cccnc12` [1,10-Phenanthroline], the 50% inhibitory concentration (IC50) in series [3] was greater than 100 µM; in the series on Cal27 (Homo sapiens, CAL-27, 48 h), 53 ± 2.18 µM; in the series with SiHa (Homo sapiens, SiHa) it was 42.9 ± 2.53 µM; with MCF7 (Homo sapiens, MCF7, 48 h), 48.8 ± 12 µM; with HepG2 (Homo sapiens, HepG2, 48 h), greater than 100 µM.
Turning to `CC(=O)N(O)CCCCCNC(=O)CCC(=O)N(O)CCCCCNC(=O)CCC(=O)N(O)CCCCCN` [DFO, Deferoxamine], the concentration for half-maximal inhibition (IC50) in series [3] is greater than 100 µM; in the series on Cal27 (Homo sapiens, CAL-27, 48 h), 46 ± 3.07 µM; in the series with SiHa (Homo sapiens, SiHa) it was 71.5 ± 5.02 µM; in the series on MCF7 (Homo sapiens, MCF7, 48 h), greater than 100 µM; with HepG2 (Homo sapiens, HepG2, 48 h) it was greater than 100 µM. Further, in the series with SiHa cells [11], the “clonogenic efficiency (colony formation)” value was 44.63%.
With `NC(=O)NO` [HU, Hydroxyurea], the half-inhibitory concentration (IC50) (in series [3]; with Cal27 (48 h); in the series with SiHa; in the series with MCF7 (48 h); with HepG2 (48 h)) was greater than 100 µM in each case.
